The record followed here is ChEMBL document CHEMBL1201862, “PubChem BioAssay data set” (2004).

Experiment in all cases: NCI anticancer screen, dose series, 48 h
Test [1] concerns NCI-H23.
Test [2] deals with HCT-15.
Test [3] relates to SF-295.
The subject of test [4] is HOP-92.
Test [5] deals with MOLT-4.
Test [6] relates to CAKI-1.
In test [7] the test system is OVCAR-4.
Test [8] relates to UO-31.
The test system of test [9] is SF-268.
Test [10] has as its system Malme-3M.
Test [11] concerns A549.
The subject of test [12] is SW-620.
The test system of test [13] is UACC-257.
In test [14] the test system is HCT-116.
Test [15] deals with SK-MEL-2.
Test [16] concerns RPMI-8226.
Test [17] deals with CCRF-CEM.

Each structure is given as a SMILES string.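 96-well plates; 48 h exposure; 5 concentrations. Endpoints by linear interpolation between flanking doses. Not reached: highest tested concentration assigned. GI50 marks 50% less growth.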 Active and inactive are the calls of the source. Cut-off read from the data, not from the text of the source: active = GI50 up to about 1.1 µM and inactive = higher.

Take `Cc1c(/C=C2\CC/C(=C\c3[nH]c(C(=O)OC(C)(C)C)c(C)c3C)C2=O)[nH]c(C(=O)OC(C)(C)C)c1C`: the GI50 in test [1] was > 100 µM (inactive); in [2] it was above 100 µM; in test [3] it was > 100 µM (inactive); in [4], > 100 µM (inactive); in [5], > 100 µM (inactive); in [6] it was > 100 µM (inactive). Also, the GI50 in test [7], in test [8], in [9], in [10], in test [11] and in test [12] was > 100 µM (inactive) in each case. Also, the GI50 in [13], in test [14], in test [15], in [16] and in [17] was > 100 µM (inactive) each time.
Take `COC1(OC)CC2C(=O)N(Cc3ccccc3)C1C(S(=O)(=O)c1ccccc1)C2S(=O)(=O)c1ccccc1` (configuration not stated): the GI50 was 13.6 µM (inactive) in test [1]; 3.62 µM in test [2]; 45.7 µM (inactive) in test [3]; 19.3 µM (inactive) in [4]; 11.5 µM (inactive) in test [5]; 13.8 µM (inactive) in test [6]. For the same compound, the GI50 in test [7] is 15.1 µM (inactive); in test [8], 17.4 µM (inactive); in [9] it was 14.1 µM (inactive); in [10], 15.6 µM (inactive); in test [11], 29.6 µM (inactive); in [12] it was 2.13 µM (inactive). Moreover, the GI50 in [13] was 7.38 µM (inactive); in [14], 16.4 µM (inactive); in test [16], 15.9 µM (inactive); in [17], 2.91 µM (inactive).
In the case of `c1ccc2c(CNCCCCCCCCCCCCNCc3cccc4ccccc34)cccc2c1`, the GI50 in test [1] was 1.51 µM (inactive); in test [2], 1.66 µM; in [3], 19.5 µM (inactive); in test [4] it was 1.88 µM (inactive); in [5] it was 1.22 µM (inactive); in test [6], 1.92 µM (inactive). In addition, the GI50 was 1.58 µM (inactive) in [7]; 1.64 µM (inactive) in [8]; 2.22 µM (inactive) in test [9]; 2.21 µM (inactive) in [10]; 1.85 µM (inactive) in [11]; 1.79 µM (inactive) in test [12]. The GI50 in [13] is 1.78 µM (inactive); in [14] it was 1.61 µM (inactive); in test [15], 1.59 µM (inactive); in test [16], 1.04 µM (active); in test [17] it was 1.26 µM (inactive).
For the compound `CC1(C)CC(c2c[nH]c3ccccc23)=CC2=Nc3ccccc3C21O` (configuration not stated), the GI50 in test [1] was 34 µM (inactive); in test [2] it was above 100 µM; in test [3], 38.5 µM (inactive); in test [4], 15 µM (inactive); in test [5], > 100 µM (inactive); in test [6], 48.8 µM (inactive). Also, the GI50 is 8.38 µM (inactive) in [7]; > 100 µM (inactive) in [8]; > 100 µM (inactive) in test [9]; > 100 µM (inactive) in test [10]; 35.5 µM (inactive) in [11]; 52.1 µM (inactive) in [12]. The GI50 is > 100 µM (inactive) in test [13]; 41.8 µM (inactive) in test [14]; > 100 µM (inactive) in test [15]; > 100 µM (inactive) in [16]; > 100 µM (inactive) in [17].
As to `COC(OC)c1cccc2c1C(=O)CCC1(CC2)OCCCCO1`, the GI50 in [1] is > 100 µM (inactive); in [2] it was above 100 µM; in [3], > 100 µM (inactive); in test [5] it was > 100 µM (inactive); in test [6], > 100 µM (inactive); in [7] it was > 100 µM (inactive). Further, the GI50 in test [8], in test [9], in test [10], in [11], in test [12] and in test [13] was > 100 µM (inactive) throughout. Moreover, the GI50 in [14], in [15], in [16] and in test [17] was > 100 µM (inactive) in each case.
In the case of `CC(=O)NNc1nc(C)c(C(=O)NNC(=O)C(=O)Nc2ccc(Cl)cc2Cl)s1`, the GI50 in [1] was 32.8 µM (inactive); in [2] it was 38.5 µM; in test [3], 42.1 µM (inactive); in test [4] it was 25.9 µM (inactive); in [5] it was 20.1 µM (inactive); in test [6], 28.3 µM (inactive). Moreover, the GI50 in test [7] was 22 µM (inactive); in test [8], 28.2 µM (inactive); in test [9], 27.4 µM (inactive); in [10], 57 µM (inactive); in test [11] it was 35.9 µM (inactive); in [12], 22.2 µM (inactive). The GI50 in test [13] was 31 µM (inactive); in test [14] it was 47.2 µM (inactive); in test [15], 44.1 µM (inactive); in test [16], 31.3 µM (inactive); in [17], 20.6 µM (inactive).
For the compound `Cc1c(C(=O)C/C(=N/NC(=O)c2ccccc2O)C(=O)Nc2ccccc2C(C)C)[n+]([O-])c2ccccc2[n+]1[O-]`, the GI50 was 19.4 µM (inactive) in test [1]; 30.3 µM in test [2]; 56.9 µM (inactive) in test [3]; 3.2 µM (inactive) in [5]; 30.8 µM (inactive) in test [6]; 31.8 µM (inactive) in test [7]. For the same compound, the GI50 is 33.9 µM (inactive) in test [9]; 48.6 µM (inactive) in test [10]; 34.7 µM (inactive) in [11]; 35.4 µM (inactive) in [12]; 28.1 µM (inactive) in test [13]; 27.7 µM (inactive) in [14]. For the same compound, the GI50 in [15] is 0.0522 µM (active); in test [17], 1.47 µM (inactive).
In the case of `COc1cc([C@@H]2c3cc4c(cc3[C@@H](NC(=O)c3ccc(OC(C)=O)cc3)C3COC(=O)[C@@H]32)OCO4)cc(OC)c1O` (some centres not stated), the GI50 was 0.9 µM (active) in test [1]; 9.95 µM in [2]; 2.24 µM (inactive) in test [3]; 1.34 µM (inactive) in [4]; 0.0298 µM (active) in test [5]; 1.92 µM (inactive) in [6]. Besides, the GI50 was 39.9 µM (inactive) in test [7]; 14.3 µM (inactive) in [8]; 2.01 µM (inactive) in [9]; 2.43 µM (inactive) in [10]; 0.275 µM (active) in [11]; 0.729 µM (active) in test [12]. For the same compound, the GI50 is 8.32 µM (inactive) in [13]; 2.61 µM (inactive) in [14]; 5.57 µM (inactive) in test [15]; 1.32 µM (inactive) in [16]; 0.213 µM (active) in [17].
`Cc1cccc(N2C(=O)C(=O)C(c3nc4ccccc4s3)C(=O)C2=O)c1C`: the GI50 was > 100 µM (inactive) in test [1]; above 100 µM in [2]; > 100 µM (inactive) in [3]; > 100 µM (inactive) in [4]; > 100 µM (inactive) in [5]; > 100 µM (inactive) in test [6]. Also, the GI50 in test [7], in test [8], in test [9], in test [10], in test [11] and in [12] was > 100 µM (inactive) in each case. Further, the GI50 in [13] is > 100 µM (inactive); in test [14], > 100 µM (inactive); in test [15], > 100 µM (inactive); in test [16], > 100 µM (inactive); in [17], 35.7 µM (inactive).
Regarding `O=C1NC(=O)C2C(=O)NC(=O)C1C2c1c(Cl)cccc1Cl` (configuration not stated), the GI50 in test [1] was > 100 µM (inactive); in [2], above 100 µM; in test [3] it was > 100 µM (inactive); in [4], > 100 µM (inactive); in test [5], > 100 µM (inactive); in test [6], > 100 µM (inactive). For the same compound, the GI50 in test [7] is > 100 µM (inactive); in test [8], > 100 µM (inactive); in [9], > 51.1 µM (inactive); in test [10], > 100 µM (inactive); in [11], > 72.4 µM (inactive); in test [12], > 31.3 µM (inactive). Besides, the GI50 in test [13] is > 67.9 µM (inactive); in [14] it was > 42.6 µM (inactive); in [15] it was > 100 µM (inactive); in test [16] it was > 46.6 µM (inactive); in test [17], > 46.7 µM (inactive).
For the compound `Cc1c2ccnc(O)c2cc2c(=O)c3cnccc3[nH]c12`, the GI50 in test [1] is > 100 µM (inactive); in test [2], above 100 µM; in test [3] it was > 100 µM (inactive); in [4] it was > 100 µM (inactive); in [5], > 100 µM (inactive); in test [6], > 100 µM (inactive). Besides, the GI50 in test [7], in test [8], in test [9], in test [10], in test [11] and in [12] was > 100 µM (inactive) in each case. Besides, the GI50 in test [13], in test [14], in test [15], in [16] and in test [17] was > 100 µM (inactive) throughout.
`O=C(Nc1ccccc1)Oc1ccccc1C1CCCCC1`: the GI50 in test [1] is 14.4 µM (inactive); in [2], 16.6 µM; in test [3], 17.3 µM (inactive); in [4], 10.4 µM (inactive); in [5], 14.9 µM (inactive); in [7], 14.6 µM (inactive). Also, the GI50 in test [8] is 13.1 µM (inactive); in test [9], 36.3 µM (inactive); in test [10] it was 21.1 µM (inactive); in test [11], 20.9 µM (inactive); in test [12], 25.5 µM (inactive); in [13] it was 16.9 µM (inactive). Besides, the GI50 was 21.9 µM (inactive) in test [14], 19 µM (inactive) in test [16] and 19.5 µM (inactive) in test [17].
